# Literature values in PubChem BioAssay AID493017 (Abbott Labs, 2003).
# Biological target: Cyclin-dependent kinase 2 (Homo sapiens) (UniProt P24941)
# Test: PubChem AID 493017
# Conditions: WOMBAT literature affinities, multiple human targets; CDK2; gene CDK2; NCBI gene 1017
row,Structure (SMILES),IC50 [nM]
1,c1ccc2c(c1)nc(SC1=NCCCN1)c1c3ccccc3[nH]c21,2160
2,CCC(C)c1cc(N)nc2nc3cc(C)c(C)cc3n12 (centres undefined),6620
3,COC(=O)NC1=Nc2cccc3cccc(c23)N1,4390
4,Cc1cccc(NC(=O)Nc2ccc(Cc3ccc(NC(=O)Nc4cccc(C)c4)cc3)cc2)c1,4820
5,Oc1cc(O)cc(C=Cc2ccc(O)c(O)c2)c1,2580
6,O=C(Nc1ccccc1)Nc1sccc1OCc1ccc(Cl)cc1Cl,3370
7,Cc1cc(Cc2ccc(NC(N)=S)c(C)c2)ccc1NC(N)=S,2650
8,O=C(Nc1ccc([N+](=O)[O-])cc1)C(Cc1ccccc1)N1C(=O)c2cccc3cccc(c23)C1=O (centres undefined),4190
9,COC(=O)c1c(NC(=O)Nc2ccc(Cl)cc2)sc2c1CCN(c1ncc(C(F)(F)F)cc1Cl)C2,8890
10,Cc1cc(Nc2ccc3[nH]ncc3c2)nc(NCC2CC2)n1,4100
11,OCCNc1cc(-c2[nH]c3nccnc3c2-c2ccc(F)cc2)ccn1,3500
12,CCOC(=O)Nc1nc2ccc(C=Cc3ccc(C)cc3)cc2[nH]1,7350
13,O=C(Nc1cccc2cccc(NC(=O)c3ccc([N+](=O)[O-])cc3)c12)c1ccc([N+](=O)[O-])cc1,2940
14,Nc1ccc(C(=O)Nc2ccc(-c3nc4ccc(NC(=O)c5ccc(N)cc5)cc4[nH]3)cc2)cc1,4510
15,CC(=O)c1c(O)c(C)c(O)c(Cc2c(O)c3c(c(C(=O)C=Cc4ccccc4)c2O)OC(C)(C)C=C3)c1O,4550
16,COC(=O)c1cc(=O)n2c(nc3cc(C(F)(F)F)ccc32)s1,7770
17,C#Cc1cccc(N2C(=O)c3ccc(Oc4cccc(N5C(=O)c6ccc([N+](=O)[O-])cc6C5=O)c4)cc3C2=O)c1,2830
18,CCCCCOC(=O)c1ccc(N2C(=O)c3ccc(Oc4ccc(NC(C)=O)cc4)cc3C2=O)cc1,3300
19,Cc1ccc(C(=O)Nc2ccc3c(c2)Cc2cc(NC(=O)c4ccc(C)cc4)ccc2-3)cc1,2960
20,Cc1nc(N=C(N)NC(=O)Nc2ccc(Cl)cc2)sc1Br,2900
21,O=C(Nc1ccc(Cl)cc1)c1cc(Br)ccc1NS(=O)(=O)c1ccc(Br)c2nsnc12,3660
22,Nc1nc(NS(=O)(=O)c2ccc(C(F)(F)F)cc2)cc(-c2ccc(F)cc2)n1,1860
23,c1cnc2nc(-c3ccncc3)[nH]c2c1,3000

# The next compounds have a lower IC50 than those just listed; values first:
row,IC50 [nM],Structure (SMILES)
1,1220,Cc1ccc(Nc2nc(-c3cc(C(C)(C)C)c(O)c(C(C)(C)C)c3)c(C)s2)cc1
2,1410,O=C1c2ccc([N+](=O)[O-])c3c([N+](=O)[O-])ccc(c23)C(=O)N1c1ccc(S(=O)(=O)Nc2cc(Cl)ccc2O)cc1
3,1480,N#CC(=Cc1cc(O)c(O)c(O)c1)C(N)=C(C#N)C#N
4,1310,O=C(CSc1nnc(SCC(=O)Nc2nc(-c3ccccc3)cs2)s1)Nc1nc(-c2ccccc2)cs1
5,1130,S=c1[nH]c(=S)c2c3c(sc2[nH]1)CN(Cc1ccccc1)CC3
6,1150,O=C(Nc1cc([N+](=O)[O-])ccc1O)c1ccc(Oc2ccc(C(=O)Nc3cc([N+](=O)[O-])ccc3O)cc2)cc1
7,1370,O=C(Nc1ccc(NC(=O)c2ccccc2[N+](=O)[O-])cc1)c1ccc(NC(=O)c2ccccc2[N+](=O)[O-])cc1
8,1210,O=C(Cc1nnc(NC(=O)c2ccc([N+](=O)[O-])c(Cl)c2)s1)NNC(=O)c1ccc([N+](=O)[O-])c(Cl)c1
9,1120,CN1CCc2nc(SCc3ccc(C(C)(C)C)cc3)c(C#N)c(-c3cccs3)c2C1
10,1520,O=[N+]([O-])c1ccc(S(=O)(=O)c2ccc(Oc3ccc(S(=O)(=O)c4ccc([N+](=O)[O-])cc4)cc3)cc2)cc1
11,1100,N#Cc1cnc(NC2CCCCC2)nc1N
